Reference: patent US20210259960A1, “FORMULATION CONTAINING EMRICASAN” (The Doshisha, priority 2018, published 2021)

Key:
[1] = Stability of emricasan in solution using HCO-60, HPLC (Example 3); assay type: physicochemical; details: 0.5% emricasan, 0.5% HCO-60
Procedure: Stability of when HCO-60 was used as a surfactant to dissolve emricasan to a final concentration of 0.5% was tested. 500 mg of emricasan was accurately measured with an electronic balance (AUW220D, SHIMADZU) and transferred to a glass test tube. 2 ml of 99% ethanol was added thereto to dissolve emricasan. The solution thereof was sufficiently stirred with a vortex mixer in order to completely dissolve emricasan. The solution thereof was then added with polyoxyethylene hydrogenated castor oil 60 (HCO-60, NIKKOL), which is a surfactant, so that the final concentration was 0.5%, followed by sufficient stirring. Ethanol was then distilled off by a nitrogen gas stream. In order to adjust osmotic pressure, concentrated glycerin was added to this solution so that the final concentration was 1%. Phosphate buffered saline (PBS) was adjusted to pH 8, and added so that the total amount was 100 ml. After the solution was sufficiently stirred, 20 ml was collected and filtered with a 0.22 μmGV filter (Merck Millipore). 5 ml of the first filtrate was discarded, and 15 ml of the subsequent filtrate was collected. […] In this case, the stability was evaluated over time by assuming the results of HPLC measurement immediately after preparation to be 100% and comparing said results with the results after 2 weeks and 4 weeks. […]

[2] = Lyophilization test of emricasan ophthalmic solution, re-solubility by HPLC (Example 6); assay type: physicochemical; details: water added
Procedure: 7 mg of emricasan was accurately measured with an electronic balance (AUW220D, SHIMADZU) and transferred to a glass test tube. 140 μl of 99% ethanol was added thereto to dissolve emricasan. The solution thereof was sufficiently stirred with a vortex mixer in order to completely dissolve emricasan. The solution thereof was then added with polysorbate 80 (Tween 80, NIKKOL), which is a surfactant, so that the final concentration was 0.5%, followed by sufficient stirring. Ethanol was then distilled off by a nitrogen gas stream. D-mannitol (Wako Pure Chemical Industries, Ltd.) was dissolved into phosphate buffered saline (PBS) so that the final concentration was 4.5%, and the solution thereof was adjusted to pH 4.5 and added to the above solution so that the total amount was 7 ml. This solution was sufficiently stirred, and preserved in a −83° C. freezer for one day. After freezing, water was completely removed by a lyophilization machine (FDU-1200, TOKYO RIKAKIKAI CO, LTD) for 12 hours.
Water was then added to study the re-solubility. Further, after this sample was filtered with a 0.22 μmGV filter (Merck Millipore), the re-solubility of emricasan was measured by a high performance liquid chromatography (HPLC, Shimadzu Corporation). […]

[3] = test system: immortalized cells in Fuchs' endothelial corneal dystrophy (iFECD); details: in vitro; cited from earlier work
[4] = Stability of emricasan in an acidic region using Tween 80, HPLC (Example 5); assay type: physicochemical
Procedure: Stability of when Tween 80 was used as a surfactant to dissolve emricasan to a final concentration of 0.1% was tested.
45 mg of emricasan was accurately measured with an electronic balance (AUW220D, SHIMADZU) and transferred to a glass test tube. 0.9 ml of 99% ethanol was added thereto to dissolve emricasan. The solution thereof was sufficiently stirred with a vortex mixer in order to completely dissolve emricasan. The solution thereof was then added with polysorbate 80 (Tween 80, NIKKOL), which is a surfactant, so that the final concentration was 0.5%, followed by sufficient stirring. Ethanol was then distilled off by a nitrogen gas stream. In order to adjust osmotic pressure, concentrated glycerin was added to this solution so that the final concentration was 1%. Phosphate buffered saline (PBS) was adjusted to pH 5.5, and added so that the total amount was 45 ml. After the solution was sufficiently stirred, 20 ml was collected and filtered with a 0.22 μmGV filter (Merck Millipore). 5 ml of the first filtrate was discarded, and 15 ml of the subsequent filtrate was collected. 5 ml of this filtrate was placed in each glass test tube for 4° C., 25° C., and 37° C., shaded by a parafilm and an aluminum foil, and preserved under each temperature condition. The stability of this sample was studied by a high performance liquid chromatography (HPLC, Shimadzu Corporation). HPLC conditions were as follows: acetonitrile containing 0.05% trifluoroacetic acid and water were used at the ratio of 60:40 as a mobile phase, the temperature of VR-ODS column (4.6×150 mm, Shimadzu Corporation) was set to be 40° C., the flow rate was set to be 1.0 ml/min, the detection wavelength was set to be 254 nm, the injection volume was set to be 10 μl, and the detection time was set to be 10 minutes. In this case, the stability was studied over time by assuming the results of HPLC measurement immediately after preparation to be 100% and comparing said results with the results after 2 weeks and 4 weeks. Further, the condition of pH 4.5 was prepared and studied in the same method as described above.

[5] = Solubility of emricasan with 2% surfactant at various pH, visually observed (Example 1); assay type: physicochemical
Procedure: 28 mg, which is the amount for the target concentration, of emricasan powder (Chemscene) was accurately measured with an electronic balance (AUW220D, SHIMADZU) and transferred to a glass test tube. 100 μl of 99% ethanol was added thereto to dissolve the emricasan powder. The solution thereof was sufficiently stirred with a vortex mixer in order to completely dissolve the emricasan powder. The solution thereof was then added with each of polysorbate 80 (Tween 80, NIKKOL), polyoxyethylene hydrogenated castor oil (HCO-60, NIKKOL), and polyethylene glycol monostearate (MYS-40, NIKKOL), which are nonionic surfactants comprising a polyoxyethylene group, so that the final concentration was 2%, followed by sufficient stirring. Phosphate buffered saline (PBS) was added to this solution so that the total amount was 5 ml, and the solution was sufficiently stirred and solubility was visually observed.

[6] = Stability of emricasan in solution using Tween 80, HPLC (Example 4); assay type: physicochemical; details: 0.5% emricasan, 0.5% Tween 80
Procedure: Stability of when Tween 80 was used as a surfactant to dissolve emricasan to a final concentration of 0.5% was tested. 500 mg of emricasan was accurately measured with an electronic balance (AUW220D, SHIMADZU) and transferred to a glass test tube. 2 ml of 99% ethanol was added thereto to dissolve emricasan. The solution thereof was sufficiently stirred with a vortex mixer in order to completely dissolve emricasan. The solution thereof was then added with polysorbate 80 (Tween 80, NIKKOL), which is a surfactant, so that the final concentration was 0.5%, followed by sufficient stirring. Ethanol was then distilled off by a nitrogen gas stream. In order to adjust osmotic pressure, concentrated glycerin was added to this solution so that the final concentration was 1%. Phosphate buffered saline (PBS) was adjusted to pH 8, and added so that the total amount was 100 ml. After the solution was sufficiently stirred, 20 ml was collected and filtered with a 0.22 μmGV filter (Merck Millipore). 5 ml of the first filtrate was discarded, and 15 ml of the subsequent filtrate was collected. 5 ml of this filtrate was placed in each glass test tube for 4° C., 25° C., and 37° C., shaded by a parafilm and an aluminum foil, and preserved under each temperature condition. The stability of this sample was studied by a high performance liquid chromatography (HPLC, Shimadzu Corporation). […]

[7] = Solubility of emricasan with 0.5% of various surfactants at low pH, visually observed (Example 2); assay type: physicochemical; details: target 10 mmol/L; surfactant 0.5% (HCO-100, HCO-60, HCO-40, HCO-20, CO-35, MYS-40, poloxamer 407)
Procedure: In this example, a target dissolution concentration of emricasan was set to be 10 mmol/L in the same manner as Example 1. 28 mg of emricasan was accurately measured with an electronic balance (AUW220D, SHIMADZU) and transferred to a glass test tube. 100 μl of 99% ethanol was added thereto to dissolve emricasan. The solution thereof was sufficiently stirred with a vortex mixer in order to completely dissolve emricasan. The solution thereof was then added with polyoxyethylene hydrogenated castor oil 100 (HCO-100, NIKKOL), polyoxyethylene hydrogenated castor oil (HCO-60, NIKKOL), polyoxyethylene hydrogenated castor oil 40 (HCO-40, NIKKOL), polyoxyethylene hydrogenated castor oil 20 (HCO-20, NIKKOL), polyoxyethylene castor oil (CO-35:, NIKKOL), polyethylene glycol monostearate 40 (MYS-40, NIKKOL), and polyoxyethylene polyoxypropylene glycol 407 (poloxamer 407, NIKKOL), which are nonionic surfactants comprising a polyoxyethylene group, so that the final concentration was 0.5%, followed by sufficient stirring. Phosphate buffered saline (PBS) was added to this solution so that the total amount was 5 ml, and the solution was sufficiently stirred and solubility was visually observed.

## C[C@H](NC(=O)C(=O)Nc1ccccc1C(C)(C)C)C(=O)N[C@@H](CC(=O)O)C(=O)COc1c(F)c(F)cc(F)c1F [emricasan]
[1]; 25° C. and 37° C.
  stability in solution: degradation of emricasan was observed
[1]; pH 6 to 8, 4° C., 4 weeks
  emricasan which was not degraded (residual vs immediately after preparation): no less than 90%
[2]; lyophilized (0.5% Tween 80, 4.5% D-mannitol, pH 4.5), after 0.22 μm filtration
  amount of emricasan dissolved relative to before lyophilization: about 88%
[2]; lyophilized sample
  re-solubility after addition of water (appearance): immediately dissolved but was pale white
[3]
  concentration that exhibited pharmacological activity: 10 μmol/L
[4]; 0.1% emricasan, 0.5% Tween 80, pH 4.5, 25° C., 2 weeks
  emricasan which was not degraded: no less than 90%
[4]; 0.1% emricasan, 0.5% Tween 80, pH 4.5 and 5.5, 4° C., 4 weeks
  emricasan which was not degraded: no less than 90%
[4]; 0.1% emricasan, 0.5% Tween 80, pH 4.5 and pH 5.5, 37° C.
  stability in solution: degradation of emricasan was observed
[4]; 0.1% emricasan, 0.5% Tween 80, pH 5.5, 25° C., 2 weeks
  emricasan which was not degraded: less than 90%
[4]; 0.1% emricasan, 0.5% Tween 80, pH 5.5, 25° C., 4 weeks
  emricasan which was not degraded: no less than 50%
[4]; 0.5% Tween 80, pH 4.5 and pH 5.5
  solubility at final concentration of 0.1%: dissolved
[4]; pH on the acidic side
  amount of emricasan that dissolves: at least 0.1 % by weight
[5]; HCO-60 2%, pH 5.0, target 10 mmol/L
  solubility (visually observed): a suspended state was maintained
[5]; Tween 80, HCO-60 or MYS-40 2%, pH 7, target 10 mmol/L
  solubility (visually observed): dissolution of all of the emricasan was observed
[5]; no surfactant, at a concentration for use in an eye drop
  solubility in saline, phosphate buffer, purified water: poorly soluble
[5]; no surfactant, pH 7.0 to 8.0, target 10 mmol/L
  solubility (visually observed): dissolution was not observed
[5]; target 10 mmol/L, nonionic polyoxyethylene surfactant 2%
  minimum pH value of a solvent in which dissolution was visually observed: 6.0
[5]; with surfactant 2%, pH 5.0, target 10 mmol/L
  solubility (visually observed): slightly dissolved
[6]; 25° C. and 37° C.
  stability in solution: degradation of emricasan was observed
[6]; pH 6 to 8, 4° C., 4 weeks
  emricasan which was not degraded (residual vs immediately after preparation): no less than 90%
[7]
  final pH at which dissolution was observed: ≥ 6.5
